In PMC2818883 (Inorganic chemistry, 2010):
Read-outs that look alike come from different tables or passages of the source.

Assays:
HIV = details: cited from earlier work
[1] = test system: HIV-1 (IIIB) and HIV-2 (ROD) strains; format: cell-based; details: for IC50: read-out: IC50 values, text summary over HIV-1 (IIIB) and HIV-2 (ROD) strains
HIV-2 (ROD) = test: Anti-HIV activity in MT-4 cell cultures, HIV-2; format: cell-based; details: read-out: av. IC50, average, MT-4 cells
MT-4 cells = test: Cytotoxicity evaluation in uninfected MT-4 cells; format: cell-based

| Compound | antiviral (anti-HIV) activity in words [1] | IC50 [1] [µM] | further results |
| --- | --- | --- | --- |
| Pd(II)-cyclam | – | – | anti-HIV activity of metal cyclams in words (HIV): inactive |
| oxovanadium(IV)-cyclam dichloride [Complex 2] | inactive | > 360 | – |
| Co(III)-cyclam | – | – | anti-HIV activity of metal cyclams in words (HIV): inactive |
| O=S(=O)([O-])[O-].O=S(=O)([O-])[O-].[O]=[V+2].[O]=[V+2].c1cc(CN2CCCNCCNCCCNCC2)ccc1CN1CCCNCCNCCCNCC1 [Complex 3, oxovanadium(IV)-(xylylbicyclam) disulfate] | highly active | 1 to 5 | IC50 (HIV-2 (ROD)): 3.3 µM; CC50 (MT-4 cells): > 151 µM |
| [Cl-].[Cl-].[Cl-].[Cl-].[O]=[V+2].[O]=[V+2].c1cc(CN2CCCNCCNCCCNCC2)ccc1CN1CCCNCCNCCCNCC1 [Complex 4, oxovanadium(IV)-(xylylbicyclam) tetrachloride] | highly active | 0.1 to 0.3 | CC50 (MT-4 cells; read-out: av. CC50, average, uninfected MT-4 cells): > 161 µM; CC50 (MT-4 cells; single determinations, reduces viability of uninfected MT-4 cells by 50%): > 161 µM |
| oxovanadium(IV)-cyclam sulfate [Complex 1] | inactive | > 340 | – |
| c1cc(CN2CCCNCCNCCCNCC2)ccc1CN1CCCNCCNCCCNCC1 [AMD3100, xylylbicyclam] | – | – | IC50 (HIV; read-out: IC50 against HIV, entry inhibitor drug against HIV): < 0.1 µM |
